Measurements taken from patent US20110020463A1, “THERAPEUTIC AGENT FOR FIBROMYALGIA SYNDROME AND THERAPEUTIC AGENT FOR PAIN CAUSED BY MUSCLE SPASM” (priority 2008, published 2011).

Assays:
right blepharism = details: human, in vivo
fibromyalgia syndrome = details: human, in vivo

botulinum toxin
effect on right blepharism (eyelid) (right blepharism): extremely effective | effect on generalized myalgia (fibromyalgia syndrome): no effect
